Measurements as given in PubChem BioAssay (NCI).
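96-well plates; 48 h exposure; 5 concentrations. Endpoints by linear interpolation between flanking doses. Not reached: highest tested concentration assigned. At the GI50, growth is halved. The concentration for full growth arrest is given as TGI.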

What was measured:
Experiment in all cases: DTP human tumour cell line panel, 48 h
NCI-H460 lung = system: NCI-H460 lung
ACHN renal = system: ACHN renal
UACC-62 melanoma = system: UACC-62 melanoma
TK-10 renal = system: TK-10 renal
SF-539 CNS = system: SF-539 CNS
DU-145 prostate = system: DU-145 prostate
SNB-19 CNS = system: SNB-19 CNS
786-0 renal = system: 786-0 renal
OVCAR-3 ovarian = system: OVCAR-3 ovarian
SN12C renal = system: SN12C renal

| Compound | GI50 (NCI-H460 lung) [µM] | TGI (NCI-H460 lung) [µM] | GI50 (ACHN renal) [µM] | TGI (ACHN renal) [µM] | GI50 (UACC-62 melanoma) [µM] | TGI (UACC-62 melanoma) [µM] | GI50 (TK-10 renal) [µM] | TGI (TK-10 renal) [µM] | GI50 (SF-539 CNS) [µM] | TGI (SF-539 CNS) [µM] | GI50 (DU-145 prostate) [µM] | TGI (DU-145 prostate) [µM] | GI50 (SNB-19 CNS) [µM] | TGI (SNB-19 CNS) [µM] | GI50 (786-0 renal) [µM] | TGI (786-0 renal) [µM] | GI50 (OVCAR-3 ovarian) [µM] | TGI (OVCAR-3 ovarian) [µM] | GI50 (SN12C renal) [µM] | TGI (SN12C renal) [µM] |
| --- | --- | --- | --- | --- | --- | --- | --- | --- | --- | --- | --- | --- | --- | --- | --- | --- | --- | --- | --- | --- |
| Clc1ccc2nc(Cl)c3ccccc3c2c1 | 3.29 | 11.8 | 4.04 | > 100 | 44.1 | > 100 | 4.96 | 31.8 | 12 | 42 | 58.5 | > 100 | 9.26 | 40.2 | 9.32 | 60.8 | 24.7 | > 100 | 28 | > 100 |
| COc1ccc(-n2cc(-c3cc(OC)c(OC)c(OC)c3)[nH]c2=S)cc1Cl | 18.9 | > 100 | 44.3 | > 100 | > 100 | > 100 | 17.2 | 66.7 | 18.4 | 48.8 | 35.7 | > 100 | 19.5 | 58.4 | 23.4 | 54.5 | 26.1 | > 100 | 46.7 | > 100 |
| CCOC(=O)c1ccccc1SC(C[N+](=O)[O-])c1ccccc1 (stereo not given) | 18.6 | 39.5 | 2.02 | 4.51 | 13.3 | 27.1 | 5.91 | 18.8 | 3.23 | 12 | 5.91 | 18.4 | 11.7 | 23.9 | 2.23 | 4.97 | 10.4 | 22.4 | 8.17 | 20.8 |
| CC(C)C[CH2][Ge]([CH2]CC(C)C)([CH2]CC(C)C)[CH2]CC(C)C | > 100 | > 100 | > 100 | > 100 | > 100 | > 100 | > 100 | > 100 | > 100 | > 100 | > 100 | > 100 | > 100 | > 100 | > 100 | > 100 | > 100 | > 100 | > 100 | > 100 |
| O=C1NC(=O)[C@@H](c2c[nH]c3ccccc23)[C@@H]1c1c[nH]c2ccccc12 | > 25 | > 25 | > 25 | > 25 | > 25 | > 25 | > 25 | > 25 | > 25 | > 25 | > 25 | > 25 | > 25 | > 25 | > 25 | > 25 | > 25 | > 25 | > 25 | > 25 |
| Nc1nccc2c1ccn2-c1cccc(NC(=O)c2ccc(N3CCOCC3)c(C(F)(F)F)c2)c1 | 0.297 | 5.42 | 0.826 | 11.5 | 0.429 | 6.12 | 1.56 | 17.3 | 1.02 | 4 | 1.22 | 4.15 | 1.58 | > 50 | 0.905 | 2.58 | 0.318 | 1.41 | 1.91 | > 50 |
